Assay [1] has as its target T1, CD73 on EMT6 mouse mammary carcinoma cells (Mus musculus, UniProt Q61503).
T1 construct: host or cells: EMT6
T1 sequence (Q61503 29-551): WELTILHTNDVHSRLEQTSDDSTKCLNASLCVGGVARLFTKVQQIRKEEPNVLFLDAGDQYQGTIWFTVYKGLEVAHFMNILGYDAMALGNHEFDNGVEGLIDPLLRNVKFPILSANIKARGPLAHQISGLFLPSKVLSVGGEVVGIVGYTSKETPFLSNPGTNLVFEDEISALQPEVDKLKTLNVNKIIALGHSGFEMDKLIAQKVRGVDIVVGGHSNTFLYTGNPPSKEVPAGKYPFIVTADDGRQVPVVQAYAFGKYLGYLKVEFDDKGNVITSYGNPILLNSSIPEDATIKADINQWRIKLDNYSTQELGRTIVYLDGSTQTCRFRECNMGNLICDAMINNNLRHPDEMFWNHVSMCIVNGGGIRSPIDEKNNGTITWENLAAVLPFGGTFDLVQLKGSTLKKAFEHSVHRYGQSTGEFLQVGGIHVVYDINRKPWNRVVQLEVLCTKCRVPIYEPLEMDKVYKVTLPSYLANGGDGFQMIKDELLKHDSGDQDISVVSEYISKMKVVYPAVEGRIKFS
The assay can be described thus: CD73 enzyme inhibition assay with mouse EMT6 cells (PiColorLock). The class given is cell-based. The conditions noted are these: mouse EMT6 cancer cells, AMP 100 μM. How it is done: The cell-based CD73 enzyme inhibition assay was performed in a 96-well plate format using the Phosphate Assay Kit—PiColorLock™ in accordance with the manufacturer's instructions (cat no. 270004, Abcam). AMP is enzymatically converted by CD73 to adenosine and phosphate. Therefore, adenosine concentrations can be inferred from phosphate concentrations in 1:1 ratio. Both EMT6 mouse mammary carcinoma cells (ATCC CRL-2755) and human peripheral blood mononuclear cells (PBMC; Stemcell Technologies cat no. 70025, lot no. 2202401007) were assayed. The EMT6 cells were washed three times with a phosphate free CD73 buffer, detached from flasks using a cell scraper, and seeded at 3×10^3 cells/well in 100 μL into 96-well tissue culture-treated plates. Human PBMC cells were washed three times by suspending in phosphate free CD73 buffer and pelleting in a centrifuge at 125×g for 10 min at room temperature and seeded at 5×10^5 cells/well in 100 μL into 96-well tissue culture-treated plates. […] AMP was added at 100 μM and cells, test articles, and AMP were incubated together for 3 h and 24 h at 37° C., 5% CO2. The CD73 activity in the supernatant was quantified using the PiColorLock Phosphate assay kit. Colorimetric detection reagent was added and the free phosphate from the CD73 reaction was measured by reading the absorbance at 635 nm using the EnSpire multimode plate reader (PerkinElmer). Wells without test inhibitor (CD73 positive control) were included on each plate. Wells without test inhibitor and cells (background) were subtracted from all wells. The percent CD73 inhibition versus inhibitor concentration was plotted using GraphPad Prism Version 8 and IC50's calculated using nonlinear regression analysis (Sigmoidal, 4 PL).

In assay [2] the target is T2, CD73 expressed on the MDA-MB-231 cell surface (Homo sapiens, UniProt P21589).
T2 construct: host or cells: MDA-MB-231
T2 sequence (P21589 27-549): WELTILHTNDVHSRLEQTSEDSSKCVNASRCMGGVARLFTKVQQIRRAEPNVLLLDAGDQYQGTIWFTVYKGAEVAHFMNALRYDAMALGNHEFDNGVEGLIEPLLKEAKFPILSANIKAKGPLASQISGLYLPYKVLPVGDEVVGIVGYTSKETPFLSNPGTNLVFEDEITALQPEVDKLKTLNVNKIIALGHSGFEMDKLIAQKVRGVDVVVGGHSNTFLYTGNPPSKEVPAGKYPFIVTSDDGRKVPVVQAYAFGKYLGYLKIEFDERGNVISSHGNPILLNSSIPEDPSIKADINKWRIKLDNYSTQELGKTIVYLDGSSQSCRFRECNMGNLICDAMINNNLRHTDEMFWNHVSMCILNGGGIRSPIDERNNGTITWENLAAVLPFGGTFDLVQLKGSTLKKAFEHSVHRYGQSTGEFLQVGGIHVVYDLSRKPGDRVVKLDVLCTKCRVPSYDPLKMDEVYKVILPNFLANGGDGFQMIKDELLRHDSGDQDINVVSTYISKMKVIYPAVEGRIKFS
The assay can be described thus: Cell-based CD73 enzyme inhibition assay on MDA-MB-231 cells. The settings on record: AMP 400 μM, 3 h (FIG. 3). The method, then: The cell-based CD73 enzyme inhibition assay was performed essentially as described above for the cell-free assay, with the following modifications.
(§1) The cell-based CD73 enzyme inhibition assay was performed essentially as described above for the cell-free assay, with the following modifications. MDA-MB-231 human breast adenocarcinoma cells (ATCC CRM-HTB-26) were seeded at 2×10^4 cells/well/100 μL into 96-well tissue culture-treated plates (Corning Costar cat no. 3596) and incubated overnight at 37° C., 5% CO2. […] The 96-well plate was then centrifuged at 125×g for 5 min at room temperature and ATP (25 μL/well, 100 μM final) was combined with supernatant (25 μL/well) in a white opaque 96-well plate (Corning Costar cat no. 3912).
as §1, with “3912). […] Percent CD73 inhibition (y-axis) versus log10 inhibitor concentration (x-axis) were plotted using GraphPad Prism Version 8 and IC50's calculated using nonlinear regression analysis (Sigmoidal, 4 PL).” for “3912).”

For assay [3], the target named is T3, CD73 on MDA-MB-231 cells (Homo sapiens, UniProt P21589).
T3 construct: host or cells: MDA-MB-231
T3 sequence (P21589 27-549): T2 sequence (P21589 27-549)
The assay can be described thus: CD73 internalization assay (Fab-ZAP). The assay is classed as cell-based.
Procedure: Cells were plated into white tissue culture-treated 96 well plates (Corning cat no. 3917) at 5×10^3 to 1×10^4 cells/well in 100 μL in RPMI (Gibco cat no. 11875093)+10% FBS (Gibco cat no. 16140071) and incubated overnight at 37° C. with 5% CO2. Serial dilutions of test article (TA) from 0.00002 nM-200 nM (2× final concentration) were pre-incubated with 100 nM Fab-ZAP reagent (2× final concentration) for 30 min at room temperature. Cells were washed once with 150 μL/well 1×PBS (Gibco cat no. 10010023), followed by the addition of 50 μL/well of media and 50 μL/well TA/Fab-ZAP mix. Cells were then incubated for 72 h at 37° C. with 5% CO2 and viability was determined after 72 h via the CellTiter-Glo assay (Promega cat no. G7570) following the manufacturer's instructions. Cell viability RLU versus log10 nM drug concentration was plotted using GraphPad Prism. The % CD73 internalization was calculated using the following formula: % CD73 internalization=[1−RLU (sample)/RLU (untreated cells)]×100%. The EC50's for each TA was calculated using the 4 PL non-linear regression analysis in GraphPad Prism software.
Cells were plated into white tissue culture-treated 96 well plates (Corning cat no. 3917) at 2×10^3 cells/well in 100 μL in RPMI (Gibco cat no. 11875093)+10% FBS (Gibco cat no. 16140071) and incubated overnight at 37° C. with 5% CO2. Serial dilutions of test article (TA) from 0.06 nM-20 nM (2× final concentration) were pre-incubated with 100 nM Fab-ZAP reagent (2× final concentration) for 30 min at room temperature. […] Cells were then incubated for 96 h at 37° C. with 5% CO2 and viability was determined after 96 h via the CellTiter-Glo assay (Promega cat no. G7570) following the manufacturer's instructions. […] The % CD73 internalization was calculated using the following formula: % CD73 internalization=[1−RLU (sample)/RLU (untreated cells)]×100%. The EC50's for each TA was calculated using the 4 PL non-linear regression analysis in GraphPad Prism software.

For assay [4], the target named is T4, human CD73/NT5E protein (Homo sapiens, UniProt P21589).
T4 construct: purchased Acro Biosystems CD3-H52H7
T4 sequence (P21589 27-549): T2 sequence (P21589 27-549)
Nature of the assay: Human CD73 binding by surface plasmon resonance. The conditions noted are these: SPR, Biacore 8k; DFCs and mAbs on His-captured CD73, small molecules on NTA-captured CD73 (Table 14). Background: SPR reads the build-up and loss of mass on a sensor chip optically.
Procedure: Kinetic binding of drug-Fc conjugates (DFCs) and comparator monoclonal antibodies (mAbs) to human CD73 by surface plasmon resonance (SPR) was performed by Acro Biosystems using the Biacore 8 k system (Cytiva). The anti-histidine antibody included in the His Capture Kit, type 2 (cat no. 29234602, Cytiva) was diluted to 50 μg/mL in immobilization buffer (10 mM sodium acetate, pH 4.5; cat no. 29234602, Cytiva) and immobilized at a flow rate of 10 μL/min for 420 s to 10,000 RU on a Series S Sensor Chip CM5 (cat no. 29149603, Cytiva). […] Sensorgrams were recorded by flowing 2-fold dilutions of analyte (DFC or mAb) in running buffer at concentrations ranging from 125 nM to 0.977 nM. Binding was measured at a flow rate of 30 μL/min, with a 90 s association phase and 120 s dissociation phase. […] Binding kinetics were analyzed using the data analysis software. […]
Binding of small molecule benchmark inhibitors to human CD73 by SPR was performed by Acro Biosystems using the Biacore 8 k system (Cytiva). […] Sensorgrams were recorded by flowing 2-fold dilutions of DFC analytes in running buffer at concentrations ranging from 15.625 nM to 0.977 nM. Binding was measured at a flow rate of 30 μL/min, with a 120 s association phase and 300 s dissociation phase. […] Binding kinetics were analyzed using the data analysis software. […]

Assay [5] concerns the target T5, CD73 (Homo sapiens, UniProt P21589).
T5 sequence (P21589 27-549): T2 sequence (P21589 27-549)
Nature of the assay: Cell-free CD73 inhibition IC50 (nM). From the text:
Table printed on a drawing sheet, FIG. 24
Head of the field: Cell-free CD73 inhibition IC50 (nM)
Where the first naming reader finds the target: head: Cell-free CD73 inhibition IC50 (nM)

pIC50, pKd: −log10 of the molar value. Read-outs that look alike come from different tables or passages of the source.

The term IC50 denotes the concentration that inhibits the measured activity by half. As a reminder, the pIC50 is the negative decadic logarithm of the IC50, by convention in mol/L. `C[C@H](Nc1cc(Cl)nc2c1cnn2[C@@H]1O[C@H](COP(=O)(O)CP(=O)(O)O)[C@@H](O)[C@H]1O)c1ccccc1F` [AB680] returned an IC50 in assay [1] (3 h IC50 [nM], 3 h) of 1.06 nM. In assay [1] (24 h, read-out: 24 h IC50), the negative-log IC50 (pIC50) was 8.64.

As a reminder, the pKd is −log10 of the Kd, conventionally taken in molar units. Low readings indicate a high Kd, high ones a low Kd. Regarding `COC[C@](CO)(OC[C@H]1O[C@@H](n2ncc3c(NC4CCCC4)nc(Cl)nc32)[C@H](O)[C@@H]1O)P(=O)(O)O` [OP-5244], the pIC50 is 9.29 in assay [1] (24 h, read-out: 24 h IC50); 9.55 in assay [1] (read-out: 3 h IC50, 3 h); 9.51 in assay [2]; 8.65 in assay [5]. In addition, the “Cell internalization EC50 (nM)” value in assay [3] (72 h (Table 11)) is listed as “did not induce receptor internalization”; in assay [3] (96 h (Table 23)), “No activity”. The same compound had a pKd in assay [4] of 9.28.

On to `O=P(O)(O)COC[C@H]1O[C@@H](n2ncc3c(N4CC5(CCc6ccccc65)C4)nc(Cl)nc32)[C@H](O)[C@@H]1O` [SHR170008], for which the figures for the pIC50 in assay [2] and in assay [5] were 8.31 and 7.79, respectively. For the same compound, the “Cell internalization EC50 (nM)” value in assay [3] (72 h (Table 11)) is on record as “did not induce receptor internalization”. In assay [4], this compound had a negative-log Kd (pKd) of 8.48.

(Values after patent US20260000781A1, “FC CONJUGATES INCLUDING AN INHIBITOR OF CD73 AND USES THEREOF” (Cidara Therapeutics, Inc., priority 2022, published 2026).)
